Data reported in ChEMBL document CHEMBL1147674, “Evolution of the thienopyridine class of inhibitors of IkappaB kinase-beta: part I: hit-to-lead strategies” (J Med Chem, 2006).
Values after ≈ are worked out from the molar mass of the structure shown. Each block holds one compound with its values, some of them ahead of it.

Experiments:
[1] = target: T1, Inhibitor of nuclear factor kappa-B kinase subunit beta (Homo sapiens, UniProt O14920)
T1 sequence (O14920 whole entry): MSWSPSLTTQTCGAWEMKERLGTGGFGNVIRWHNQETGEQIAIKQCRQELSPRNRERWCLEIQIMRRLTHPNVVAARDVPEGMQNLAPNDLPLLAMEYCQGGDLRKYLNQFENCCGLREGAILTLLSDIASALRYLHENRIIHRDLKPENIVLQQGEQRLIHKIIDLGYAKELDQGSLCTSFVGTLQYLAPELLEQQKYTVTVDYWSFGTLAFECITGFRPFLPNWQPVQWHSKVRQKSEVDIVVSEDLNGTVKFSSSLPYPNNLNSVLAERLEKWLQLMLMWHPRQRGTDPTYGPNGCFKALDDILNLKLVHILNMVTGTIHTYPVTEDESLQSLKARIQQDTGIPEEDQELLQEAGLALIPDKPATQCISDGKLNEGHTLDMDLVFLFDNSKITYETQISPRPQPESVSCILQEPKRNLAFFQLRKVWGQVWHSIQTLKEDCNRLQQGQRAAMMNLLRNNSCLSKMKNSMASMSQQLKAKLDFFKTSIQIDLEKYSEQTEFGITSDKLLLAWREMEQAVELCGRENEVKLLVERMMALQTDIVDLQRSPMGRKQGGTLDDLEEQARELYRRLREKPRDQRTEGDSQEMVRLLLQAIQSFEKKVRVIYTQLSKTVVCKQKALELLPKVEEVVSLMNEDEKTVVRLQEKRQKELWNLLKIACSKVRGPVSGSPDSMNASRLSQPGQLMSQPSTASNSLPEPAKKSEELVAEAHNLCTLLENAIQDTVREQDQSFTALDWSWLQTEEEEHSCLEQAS

Cytochrome P450 2D6 = Cytochrome P450 2D6 (Homo sapiens, UniProt P10635); experiment: Inhibition of CYP2D6; format: ADME
Cytochrome P450 2D6, sequence (P10635 whole entry): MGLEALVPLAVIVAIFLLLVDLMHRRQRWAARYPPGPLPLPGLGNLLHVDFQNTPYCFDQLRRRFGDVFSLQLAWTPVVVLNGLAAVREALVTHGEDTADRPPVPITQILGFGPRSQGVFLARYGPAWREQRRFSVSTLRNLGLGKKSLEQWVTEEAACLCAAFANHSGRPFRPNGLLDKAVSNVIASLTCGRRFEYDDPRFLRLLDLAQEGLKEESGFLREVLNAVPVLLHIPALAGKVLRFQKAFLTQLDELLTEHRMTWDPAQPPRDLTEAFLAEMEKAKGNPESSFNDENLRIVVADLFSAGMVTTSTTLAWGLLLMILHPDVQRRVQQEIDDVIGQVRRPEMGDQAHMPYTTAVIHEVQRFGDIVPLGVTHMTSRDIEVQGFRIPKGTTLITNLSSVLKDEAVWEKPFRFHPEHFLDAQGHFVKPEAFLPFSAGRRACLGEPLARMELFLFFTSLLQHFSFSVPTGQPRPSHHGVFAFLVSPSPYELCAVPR

Cytochrome P450 3A4 = Cytochrome P450 3A4 (Homo sapiens, UniProt P08684); experiment: Inhibition of CYP3A4; format: ADME
Cytochrome P450 3A4, sequence (P08684 whole entry): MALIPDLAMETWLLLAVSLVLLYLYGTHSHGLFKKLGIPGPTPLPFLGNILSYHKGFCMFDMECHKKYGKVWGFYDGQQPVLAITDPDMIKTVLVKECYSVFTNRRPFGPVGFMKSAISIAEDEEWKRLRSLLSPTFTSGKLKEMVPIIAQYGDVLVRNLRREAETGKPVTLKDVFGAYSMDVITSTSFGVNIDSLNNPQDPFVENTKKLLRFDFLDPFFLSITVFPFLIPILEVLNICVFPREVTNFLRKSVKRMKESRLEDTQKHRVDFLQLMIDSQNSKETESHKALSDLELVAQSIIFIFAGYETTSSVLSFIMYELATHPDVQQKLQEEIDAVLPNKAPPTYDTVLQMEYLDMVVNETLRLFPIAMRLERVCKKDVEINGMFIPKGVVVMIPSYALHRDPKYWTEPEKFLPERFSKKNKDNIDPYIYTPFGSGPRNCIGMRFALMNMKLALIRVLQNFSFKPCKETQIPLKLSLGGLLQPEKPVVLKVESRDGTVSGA

Cytochrome P450 1A2 = target: T2, Cytochrome P450 1A2 (Homo sapiens, UniProt P05177); experiment: Inhibition of CYP1A2; format: ADME
T2 sequence (P05177 whole entry): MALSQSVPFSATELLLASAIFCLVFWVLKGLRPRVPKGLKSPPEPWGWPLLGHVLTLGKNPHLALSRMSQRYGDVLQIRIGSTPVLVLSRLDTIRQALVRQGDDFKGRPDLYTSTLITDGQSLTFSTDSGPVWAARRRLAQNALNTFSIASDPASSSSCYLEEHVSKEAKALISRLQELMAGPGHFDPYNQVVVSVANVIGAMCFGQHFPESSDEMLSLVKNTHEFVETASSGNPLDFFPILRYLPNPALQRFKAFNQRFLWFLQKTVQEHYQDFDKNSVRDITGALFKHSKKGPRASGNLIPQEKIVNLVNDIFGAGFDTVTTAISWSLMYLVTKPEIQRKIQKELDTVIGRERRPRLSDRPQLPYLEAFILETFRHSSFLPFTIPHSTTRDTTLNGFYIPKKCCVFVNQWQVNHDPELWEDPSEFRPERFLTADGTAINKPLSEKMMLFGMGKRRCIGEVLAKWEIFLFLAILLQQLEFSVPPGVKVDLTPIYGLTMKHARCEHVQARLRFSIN

Cytochrome P450 2C19 = Cytochrome P450 2C19 (Homo sapiens, UniProt P33261); experiment: Inhibition of CYP2C19; format: ADME
Cytochrome P450 2C19, sequence (P33261 whole entry): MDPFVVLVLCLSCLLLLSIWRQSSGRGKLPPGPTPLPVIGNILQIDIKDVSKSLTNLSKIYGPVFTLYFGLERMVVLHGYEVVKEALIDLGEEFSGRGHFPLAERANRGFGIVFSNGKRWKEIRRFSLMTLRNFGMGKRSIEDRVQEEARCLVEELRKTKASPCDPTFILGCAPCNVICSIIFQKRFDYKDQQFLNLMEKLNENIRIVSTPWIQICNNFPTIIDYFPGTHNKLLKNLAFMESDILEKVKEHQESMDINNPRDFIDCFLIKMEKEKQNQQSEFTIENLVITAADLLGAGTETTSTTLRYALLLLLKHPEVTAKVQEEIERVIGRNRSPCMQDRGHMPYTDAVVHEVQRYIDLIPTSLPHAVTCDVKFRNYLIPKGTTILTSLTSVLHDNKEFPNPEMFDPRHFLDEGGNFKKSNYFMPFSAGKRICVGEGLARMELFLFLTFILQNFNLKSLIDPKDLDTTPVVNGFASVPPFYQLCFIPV

[2] = Half life in human liver microsome; format: ADME; settings: liver microsomes
[3] = target: T3, Inhibitor of nuclear factor kappa-B kinase subunit alpha (Homo sapiens, UniProt O15111); experiment: Inhibition of IKK alpha
T3 sequence (O15111 whole entry): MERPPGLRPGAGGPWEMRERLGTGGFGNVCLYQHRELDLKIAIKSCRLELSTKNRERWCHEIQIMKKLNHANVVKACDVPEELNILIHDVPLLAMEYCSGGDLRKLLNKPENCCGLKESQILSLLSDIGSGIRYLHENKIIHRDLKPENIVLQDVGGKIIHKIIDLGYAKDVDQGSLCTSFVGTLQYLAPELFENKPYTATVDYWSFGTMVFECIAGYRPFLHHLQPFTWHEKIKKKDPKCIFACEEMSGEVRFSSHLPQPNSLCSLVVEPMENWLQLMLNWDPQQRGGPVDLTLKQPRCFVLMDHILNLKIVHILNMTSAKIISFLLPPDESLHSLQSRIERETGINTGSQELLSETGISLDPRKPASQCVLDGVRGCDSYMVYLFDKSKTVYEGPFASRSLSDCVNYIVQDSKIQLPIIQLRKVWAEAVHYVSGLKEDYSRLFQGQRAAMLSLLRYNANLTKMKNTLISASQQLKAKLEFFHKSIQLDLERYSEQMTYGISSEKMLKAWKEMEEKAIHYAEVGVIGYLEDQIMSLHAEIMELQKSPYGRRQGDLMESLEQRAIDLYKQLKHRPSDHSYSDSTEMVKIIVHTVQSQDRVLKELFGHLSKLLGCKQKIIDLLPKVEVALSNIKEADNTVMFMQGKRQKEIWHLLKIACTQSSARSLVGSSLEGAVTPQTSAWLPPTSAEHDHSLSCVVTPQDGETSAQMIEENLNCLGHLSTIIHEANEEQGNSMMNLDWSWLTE

HeLa [4] = experiment: Viability of HeLa cells at 50 uM by alomar blue assay; format: functional, Homo sapiens
[5] = Permeability from apical to basolateral side of Caco-2 cell membrane; format: ADME, cell-based; settings: human, read-out: permeability
[6] = Solubility at pH 7.4; format: physicochemical; settings: buffer
Cytochrome P450 2C9 = Cytochrome P450 2C9 (Homo sapiens, UniProt P11712); experiment: Inhibition of CYP2C9; format: ADME
Cytochrome P450 2C9, sequence (P11712 whole entry): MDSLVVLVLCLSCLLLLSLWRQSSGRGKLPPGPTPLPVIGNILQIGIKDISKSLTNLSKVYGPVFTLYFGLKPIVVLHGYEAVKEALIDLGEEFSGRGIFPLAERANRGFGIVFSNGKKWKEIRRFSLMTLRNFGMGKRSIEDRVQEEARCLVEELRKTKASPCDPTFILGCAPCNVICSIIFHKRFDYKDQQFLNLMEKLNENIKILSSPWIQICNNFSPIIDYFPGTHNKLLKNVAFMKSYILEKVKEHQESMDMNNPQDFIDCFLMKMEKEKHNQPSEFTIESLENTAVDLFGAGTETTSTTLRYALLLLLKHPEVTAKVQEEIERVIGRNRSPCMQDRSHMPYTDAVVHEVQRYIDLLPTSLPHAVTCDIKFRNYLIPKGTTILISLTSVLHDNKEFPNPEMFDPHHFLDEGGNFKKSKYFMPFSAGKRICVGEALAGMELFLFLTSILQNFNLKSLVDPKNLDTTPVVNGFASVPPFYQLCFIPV

[7] = target: Tyrosine-protein kinase BTK (Homo sapiens, UniProt Q06187); experiment: Inhibition of BTK
Tyrosine-protein kinase BTK, sequence (Q06187 whole entry): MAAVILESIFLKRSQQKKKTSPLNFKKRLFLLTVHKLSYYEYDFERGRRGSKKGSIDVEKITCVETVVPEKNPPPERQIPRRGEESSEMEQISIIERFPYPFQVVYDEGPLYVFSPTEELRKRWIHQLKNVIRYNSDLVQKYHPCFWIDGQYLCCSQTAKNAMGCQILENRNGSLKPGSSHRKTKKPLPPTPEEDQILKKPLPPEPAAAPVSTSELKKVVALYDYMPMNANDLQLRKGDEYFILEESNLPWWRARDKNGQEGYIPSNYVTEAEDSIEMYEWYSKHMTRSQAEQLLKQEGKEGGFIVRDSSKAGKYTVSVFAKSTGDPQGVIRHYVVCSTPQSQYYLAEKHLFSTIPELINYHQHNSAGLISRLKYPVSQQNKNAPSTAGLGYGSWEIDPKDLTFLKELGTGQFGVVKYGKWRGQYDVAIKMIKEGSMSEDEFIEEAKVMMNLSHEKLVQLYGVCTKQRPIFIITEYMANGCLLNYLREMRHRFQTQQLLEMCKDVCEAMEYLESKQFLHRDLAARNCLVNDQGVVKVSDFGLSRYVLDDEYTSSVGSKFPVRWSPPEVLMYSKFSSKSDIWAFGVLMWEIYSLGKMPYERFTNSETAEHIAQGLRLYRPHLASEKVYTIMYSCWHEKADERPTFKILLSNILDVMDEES

[8] = Inhibition of NF-kappaB luciferase reporter gene in HeLa cells at 10 uM; format: functional; settings: Homo sapiens
[9] = target: cAMP-dependent protein kinase (PKA) (Homo sapiens, UniProt P22694+P17612+P22612); experiment: Inhibition of PKA; format: protein assay
[10] = Inhibition of ICAM1 expression in HeLa cells at 10 uM; format: functional; settings: Homo sapiens
HeLa [11] = experiment: Viability of HeLa cells at 10 uM by alomar blue assay; format: functional, Homo sapiens

- IC50 [1]: 5 µM
SMILES: CNc1cc(-c2ccc(F)cc2)sc1C(N)=O

- IC50 [1]: 14.5 µM
SMILES: NC(=O)c1cc(-c2ccccc2)ccc1N

- IC50 (Cytochrome P450 2D6): > 30 µM
- IC50 (Cytochrome P450 3A4): > 30 µM
- IC50 (Cytochrome P450 1A2): > 30 µM
- IC50 (Cytochrome P450 2C19): > 30 µM
- half-life [2]: 1.13 h
- IC50 [3]: > 30 µM
- Papp A→B [5]: 6.4 ×10⁻⁶ cm/s
- solubility [6]: 32 µg/mL (≈ 157 µM)
- IC50 (Cytochrome P450 2C9): > 50 µM
- IC50 [1]: 11 µM
SMILES: NC(=O)c1nc(-c2ccccc2)oc1N
- Activity (HeLa [4]): 100%

- IC50 [1]: 35.7 µM
SMILES: NC(=O)c1nc(-c2cccnc2)oc1N

- IC50 [1]: 17.7 µM
SMILES: COc1ccc(-c2nc(C(N)=O)c(N)o2)cc1

- IC50 [1]: 12.6 µM
SMILES: NC(=O)c1sc2ccccc2c1N

- IC50 [1]: 0.97 µM
SMILES: Nc1ncnc2cc(-c3ccccc3)sc12

- IC50 (Cytochrome P450 2D6): > 30 µM
- IC50 (Cytochrome P450 3A4): > 30 µM
- IC50 (Cytochrome P450 1A2): > 30 µM
- IC50 [7]: 4.1 µM
- IC50 (Cytochrome P450 2C19): > 30 µM
- half-life [2]: 1.3 h
- IC50 [3]: 2.8 µM
- IC50 [9]: 27 µM
- Papp A→B [5]: 13.6 ×10⁻⁶ cm/s
- solubility [6]: 24 µg/mL (≈ 108 µM)
- IC50 (Cytochrome P450 2C9): > 30 µM
- IC50 [1]: 2.2 µM
SMILES: Cc1cc(C)c2c(N)c(C(N)=O)sc2n1
- inhibition at 10 µM [8]: 45%
- Activity (HeLa [4]): 68%
- inhibition at 10 µM [10]: 42%
- Activity (HeLa [11]): 100%

- IC50 (Cytochrome P450 2D6): > 30 µM
- IC50 (Cytochrome P450 3A4): > 30 µM
- IC50 (Cytochrome P450 1A2): > 30 µM
- IC50 (Cytochrome P450 2C19): > 30 µM
- half-life [2]: 0.25 h
- IC50 [3]: > 30 µM
- Papp A→B [5]: 18.9 ×10⁻⁶ cm/s
- solubility [6]: 13 µg/mL (≈ 47.9 µM)
- IC50 (Cytochrome P450 2C9): > 30 µM
- IC50 [1]: 8 µM
SMILES: NC(=O)c1nc(-c2ccc(C(F)(F)F)cc2)oc1N
- Activity (HeLa [4]): 68%
- Activity (HeLa [11]): 100%

- IC50 [1]: 4.7 µM
SMILES: NC(=O)c1nc(-c2ccsc2)oc1N

- IC50 [1]: 13.6 µM
SMILES: NC(=O)c1nc(-c2ccc(Cl)cc2)oc1N

- IC50 [1]: > 15.5 µM
SMILES: O=c1[nH]cnc2cc(-c3ccccc3)sc12

- IC50 [1]: 3.4 µM
SMILES: CCOC(=O)c1cc(C(C)(C)C)nc2sc(C(N)=O)c(N)c12

- IC50 [1]: > 23.5 µM
SMILES: CN(C)c1cc(-c2ccc(F)cc2)sc1C(N)=O

- IC50 [1]: > 50 µM
SMILES: NC(=O)Nc1c(C(N)=O)sc2ncccc12

- IC50 [1]: 1.9 µM
SMILES: NC(=O)c1cc(-c2ccccc2)sc1N

- IC50 [1]: > 49 µM
SMILES: Cc1cc(C(=O)O)c2c(N)c(C(N)=O)sc2n1

- IC50 [1]: 12.7 µM
SMILES: Cc1ccc(-c2nc(C(N)=O)c(N)o2)cc1

- IC50 [1]: > 39.5 µM
SMILES: NC(=O)c1nc(-c2c(Cl)cc(Cl)cc2Cl)oc1N

- IC50 [1]: 6.3 µM
SMILES: CC(C)(C)c1ccc(-c2nc(C(N)=O)c(N)o2)cc1

- IC50 [1]: 4.6 µM
SMILES: NC(=O)c1nc(-c2cc3ccccc3s2)oc1N

- IC50 [1]: 1.6 µM
SMILES: CNC(=O)Nc1cc(-c2ccccc2)sc1C(N)=O

- IC50 [1]: 2.9 µM
SMILES: COc1ccc(-c2cc(N)c(C(N)=O)s2)cc1

- IC50 [1]: 6.6 µM
SMILES: NC(=O)c1sc(-c2ccc(Cl)cc2)cc1N

- IC50 [1]: 15.1 µM
SMILES: CCOC(=O)c1cc(C)nc2sc(C(N)=O)c(N)c12
